In assay [1] the test system is MOLT-4. The experiment in a line: Down regulation of WT1 protein levels in human MOLT4 cells at 5 to 15 uM after 48 hrs by Western blot analysis relative to control. The assay is classed as functional. (In general: A western blot detects proteins with antibodies after separation by electrophoresis.)
Assay [2] deals with KG-1a. The experiment in a line: Antiproliferative activity against human KG1a cells at IC20 after 48 hrs by trypan blue exclusion assay relative to control. The assay is classed as functional.
Assay [3] has as its system PC-3. As to the kind of experiment: Growth inhibition of human PC3 cells after 48 hrs by MTT assay. The assay is classed as functional, cell-based. The following applies: PC-3, 48 h. (In general: Formazan colour is commonly taken as a measure of viable cells.)
Assay [4] relates to MOLT-4. The experiment in a line: Down regulation of WT1 protein levels in human MOLT4 cells after 48 hrs by Western blot analysis relative to control. The assay is classed as functional.
Assay [5] relates to HL-60. As to the kind of experiment: Growth inhibition of human HL60 cells after 48 hrs by MTT assay. The following applies: HL-60, 48 h. The assay is classed as functional, cell-based.
The subject of assay [6] is SGC-7901. As to the kind of experiment: Growth inhibition of human SGC7901 cells after 48 hrs by MTT assay. Type of assay: functional, cell-based. As to conditions: SGC-7901, 48 h.
In assay [7] the test system is KG-1a. As to the kind of experiment: Cytotoxicity against human KG1a cells assessed as reduction in cell viability after 48 hrs by MTT assay. The assay is classed as functional, cell-based.
Assay [8] deals with HeLa. As to the kind of experiment: Growth inhibition of human HeLa cells after 48 hrs by MTT assay. Type of assay: functional, cell-based.
The test system of assay [9] is MOLT-4. The experiment in a line: Antiproliferative activity against human MOLT4 cells at IC20 after 48 hrs by trypan blue exclusion assay relative to control. Type of assay: functional.
The test system of assay [10] is HepG2. As to the kind of experiment: Growth inhibition of human HepG2 cells after 48 hrs by MTT assay. The assay is classed as functional, cell-based. The following applies: HepG2, 48 h.
Assay [11] concerns MOLT-4. As to the kind of experiment: Potency index, ratio of doxorubicin IC50 to compound IC50 for human MOLT4 cells. Type of assay: functional.
In assay [12] the test system is KG-1a. As to the kind of experiment: Down regulation of WT1 protein levels in human KG1a cells after 48 hrs by Western blot analysis relative to control. The assay is classed as functional.
Assay [13] relates to KG-1a. The experiment in a line: Potency index, ratio of doxorubicin IC50 to compound IC50 for human KG1a cells. The assay is classed as functional.
Assay [14] has as its system HT-1080. As to the kind of experiment: Growth inhibition of human HT1080 cells after 48 hrs by MTT assay. The following applies: HT-1080, 48 h. The assay is classed as functional, cell-based.
Assay [15] deals with MOLT-4. As to the kind of experiment: Cytotoxicity against human MOLT4 cells assessed as reduction in cell viability after 48 hrs by MTT assay. Type of assay: functional, cell-based.
The test system of assay [16] is MCF7. The experiment in a line: Cytotoxicity against human MCF7 cells assessed as reduction in cell viability after 72 hrs by MTT assay. Type of assay: functional, cell-based.
In assay [17] the test system is PC-3. The experiment in a line: Cytotoxicity against human PC3 cells assessed as reduction in cell viability after 72 hrs by MTT assay. The assay is classed as functional, cell-based.
For assay [18], the system named is HUVEC. The experiment in a line: Cytotoxicity against human HUVEC cells assessed as reduction in cell viability after 72 hrs by MTT assay. Type of assay: functional, cell-based.
In assay [19] the test system is Ca-Ski. The experiment in a line: Cytotoxicity against human CaSki cells assessed as reduction in cell viability after 72 hrs by MTT assay. Type of assay: functional, cell-based.
The test system of assay [20] is HT-29. The experiment in a line: Cytotoxicity against human HT-29 cells assessed as reduction in cell viability after 72 hrs by MTT assay. Type of assay: functional, cell-based.
The subject of assay [21] is NCI-H187. The experiment in a line: Cytotoxicity against human NCI-H187 cells assessed as reduction in cell viability. The assay is classed as functional, cell-based.
Assay [22] concerns MCF7. As to the kind of experiment: Cytotoxicity against human MCF7 cells assessed as reduction in cell viability. The assay is classed as functional, cell-based.
Assay [23] deals with KB. As to the kind of experiment: Cytotoxicity against human KB cells assessed as reduction in cell viability. The assay is classed as functional, cell-based.
The subject of assay [24] is MOLT-4. The experiment in a line: Cytotoxicity against human MOLT4 cells assessed as reduction in cell viability. Type of assay: functional, cell-based.
[25] abbreviates: Homo sapiens, MOLT-4, 48 h, read-out: IC50.

Molecules are shown by their SMILES. Converted amounts (≈) assume the structure as drawn. “And” between values parts separate entries of the source, which are not always exact repeats. Equal values may be shown once.

By IC50 is commonly meant the point on the concentration scale where inhibition reaches its midpoint. Usually IC20 stands for the concentration at which the effect reaches the 20% level.

For the compound `COc1cc(/C=C/C(=O)CC(=O)/C=C/c2ccc(O)c(OC)c2)ccc1O` [CURCUMIN], in assay [1], the Activity amounted to 90%.
For `C/C1=C\Cc2c(C)coc2C/C(C)=C/CC1` [ISOFURANODIENE], the Activity in [2] is listed as 19.58%; in assay [4], 32.17%; in assay [9] it was 10.74%; in assay [12], 58.08%. The IC50 in assay [3] is 0.6 to 4 µg/mL (≈ 2.77 to 18.5 µM); in [5], 0.6 to 4 µg/mL (≈ 2.77 to 18.5 µM); in [6], 0.6 to 4 µg/mL (≈ 2.77 to 18.5 µM); in assay [7] it was 50.1 µg/mL (≈ 232 µM); in assay [8] it was 0.6 to 4 µg/mL (≈ 2.77 to 18.5 µM); in assay [10] it was 0.6 to 4 µg/mL (≈ 2.77 to 18.5 µM). In addition, the IC50 in assay [14] was 0.6 to 4 µg/mL (≈ 2.77 to 18.5 µM); in assay [15] (setting [25]), 39.6 µg/mL (≈ 183 µM); in [15] (molt-4), 23 µg/mL (≈ 106 µM). Further, in assay [7], the IC20 is 25 µg/mL (≈ 116 µM). For the same compound, the “Ratio IC50” value was found to be 86 in assay [11] and 77 in assay [13].
As to `CC(C)=C1CC(=O)[C@@H](C)CC/C=C(\C)CC1=O`, the Activity turned out to be 19.92% in assay [2], 55.25% in [4], 49.44% in assay [9] and 44.3% in [12]. Further, the IC50 in [16] (mcf7) was 33 µg/mL (≈ 141 µM); in assay [17] (pc-3) it was 19.1 µg/mL (≈ 81.5 µM); in assay [7], over 100 µg/mL; in [18] (huvec), 24 µg/mL (≈ 102 µM); in assay [19], 21.7 µg/mL (≈ 92.6 µM); in [15] (molt-4), > 100 µg/mL and 35 µg/mL. Moreover, in [20] (ht-29), the IC50 came to 22.7 µg/mL (≈ 96.9 µM). For the same compound, the IC20 in assay [7] stood at 30 µg/mL (≈ 128 µM).
With `CC(C)=C1C[C@H]2[C@@H](CC[C@]2(C)O)[C@](C)(O)CC1=O` [ZEDOARONDIOL], the Activity in assay [2] worked out at 30.48%; in [4] it was 63.17%; in assay [9], 48.99%; in [12], 95.52%. The IC20 in assay [7] was 60 µg/mL (≈ 238 µM). The IC50 in assay [7] was over 100 µg/mL; in [21], over 50 µg/mL; in assay [22], over 50 µg/mL; in assay [23], over 50 µg/mL; in assay [15] (setting [25]) it was 77.6 µg/mL (≈ 308 µM); in assay [15] (molt-4) it was 49 µg/mL (≈ 194 µM).
Consider `CC[C@]1(O)C[C@H]2CN(CCc3c([nH]c4ccccc34)[C@@](C(=O)OC)(c3cc4c(cc3OC)N(C=O)[C@H]3[C@@](O)(C(=O)OC)[C@H](OC(C)=O)[C@]5(CC)C=CCN6CC[C@]43[C@@H]65)C2)C1` [VINCRISTINE], for which the IC50 in assay [24] amounted to 0.00063 µg/mL (≈ 0.000764 µM).
Turning to `COc1cccc2c1C(=O)c1c(O)c3c(c(O)c1C2=O)C[C@@](O)(C(=O)CO)C[C@@H]3O[C@H]1C[C@H](N)[C@H](O)[C@H](C)O1` [DOXORUBICIN], the IC50 in assay [7] was found to be 0.65 µg/mL (≈ 1.2 µM); in assay [15] (setting [25]), 0.46 µg/mL (≈ 0.846 µM).
As to `CC(C)=C1C[C@@H]2O[C@@]2(C)CC/C=C(\C)CC1=O`, the Activity in assay [2] was determined as 24.27%; in [4], 62.53%; in assay [9], 55.7%; in assay [12], 92.22%. Further, the IC50 was 37.2 µg/mL (≈ 159 µM) in assay [16] (Homo sapiens, MCF7, 72 h); 43.9 µg/mL (≈ 187 µM) in [17] (Homo sapiens, PC-3, 72 h); over 100 µg/mL in assay [7]; 48.4 µg/mL (≈ 207 µM) in assay [18] (Homo sapiens, HUVEC, 72 h); over 100 µg/mL in [15] (setting [25]); 53 µg/mL (≈ 226 µM) in [15] (molt-4). Further, in assay [20] (Homo sapiens, HT-29, 72 h), the IC50 amounted to 39.6 µg/mL (≈ 169 µM). In assay [7], the IC20 was found to be 20 µg/mL (≈ 85.3 µM).
